Source: PMC11492426, “Design, synthesis, and biological evaluation of novel quinoline-based EGFR/HER-2 dual-target inhibitors as potential anti-tumor agents” (RSC Advances, 2024)

Columns and labels:
[1] = test system: HT-29 colon cancer cell line; assay: Antiproliferative assay, HT-29; format: cell-based; details: Homo sapiens; HT-29 colon cancer cells; read-out: Antiproliferative activity IC50 ± SEM, HT-29
[2] = test system: Panc-1 pancreatic cancer cell line; assay: Antiproliferative assay, Panc-1; format: cell-based; details: Homo sapiens; Panc-1 pancreatic cancer cells; read-out: Antiproliferative activity IC50 ± SEM, Panc-1
[3] = Cell viability assay (MTT) on MCF-10A normal cells; format: cell-based; details: human, MCF-10A mammary gland epithelial normal cells, MCF-10A cells, four-day incubation
Description: The impact of compounds 3a–h and 5a–d on cell viability was evaluated using the human mammary (MCF-10A) gland epithelium normal cell line. The MTT assay was used to evaluate the cell viability of 3a–h and 5a–d after a four-day incubation period on MCF-10A cells.[46] Refer to Appendix A for more details.
The effect of new compounds 3a–h and 5a–d on cell viability was evaluated using the MCF-10A (human mammary gland epithelium) normal cell line.
4.2. Biological evaluation
4.2.1 Cell Viability assay (MTT assay)
MTT assay was performed to investigate the effect of the synthesized compounds on mammary epithelial cells (MCF-10A). The cells were propagated in medium consisting of Ham's F-12 medium/ Dulbecco's modified Eagle's medium (DMEM) (1:1) supplemented with 10% foetal calf serum, 2 mM glutamine, insulin (10 μg/mL), hydrocortisone (500 ng/mL) and epidermal growth factor (20 ng/mL). Trypsin ethylenediamine tetra acetic acid (EDTA) was used to passage the cells after every 2-3 days. 96-well flat-bottomed cell culture plates were used to seed the cells at a density of 10^4 cells mL-1. The medium was aspirated from all the wells of culture plates after 24 h followed by the addition of synthesized compounds (in 200 μL medium to yield a final concentration of 0.1% (v/v) dimethyl sulfoxide) into individual wells of the plates. Four wells were designated to a single compound. The plates were allowed to incubate at 37°C for 96 h. Afterwards, the medium was aspirated and 3-[4,5-dimethylthiazol-2-yl]-2,5-diphenyltetrazolium bromide (MTT) (0.4 mg/mL) in medium was added to each well and subsequently incubated for 3 h. The medium was aspirated and 150 μL dimethyl sulfoxide (DMSO) was added to each well. The plates were vortexed followed by the measurement of absorbance at 540 nm on a microplate reader. The results were presented as inhibition (%) of proliferation in contrast to controls comprising 0.1% DMSO.

[4] = test system: four human cancer cell lines (A-549, MCF-7, Panc-1, HT-29); assay: Antiproliferative assay, average over four cancer cell lines; format: cell-based; details: average IC50 over the four cancer cell lines
[5] = test system: A-549 lung cancer cell line; assay: Antiproliferative assay, A-549; format: cell-based; details: Homo sapiens, A549; A-549 lung cancer cells; read-out: Antiproliferative activity IC50 ± SEM, A-549
[6] = test system: MCF-7 breast cancer cell line; assay: Antiproliferative assay, MCF-7; format: cell-based; details: Homo sapiens, MCF7; MCF-7 breast cancer cells; read-out: Antiproliferative activity IC50 ± SEM, MCF-7
[7] = test system: Caspase-8; assay: Caspase-8 activation assay in MCF-7 cells; format: cell-based, human
[8] = test system: Caspase-3; assay: Caspase-3 activation assay in MCF-7 cells; format: cell-based, human
[9] = test system: Bax; assay: Bax activation assay in MCF-7 cells; format: cell-based, human
Description: This lysate was diluted in Standard Diluent Buffer over the range of the assay and measured for human active caspase-8 content. (Cells are Plated in a density of 1.2 – 1.8 × 10,000 cells/well in a volume of 100µl complete growth medium + 100 ul of the tested compound per well in a 96-well plate for 24 hours before the enzyme assay for […].). […]
4.2.7. Bax activation assay
Bring all reagents, except the human Bax-α Standard, to room temperature for at least 30 minutes prior to opening. The human Bax-α Standard solution should not be left at room temperature for more than 10 minutes. All standards, controls and samples should be run in duplicate. Refer to the Assay Layout Sheet to determine the number of wells to be used and put any remaining wells with the desiccant back into the pouch and seal the ziploc. Store unused wells at 4 °C. Pipet 100 μL of Assay Buffer into the S0 (0 pg/mL standard) wells. Pipet 100 μL of Standards #1 through #6 into the appropriate wells. Pipet 100 μL of the Samples into the appropriate wells. Tap the plate gently to mix the contents. Seal the plate and incubate at room temperature on a plate shaker for 1 hour at ~500 rpm. Empty the contents of the wells and wash by adding 400 μL of wash solution to every well.
Repeat the wash 4 more times for a total of 5 washes. After the final wash, empty or aspirate the wells and firmly tap the plate on a lint free paper towel to remove any remaining wash buffer. Pipet 100 μL of yellow Antibody into each well, except the Blank. Seal the plate and incubate at room temperature on a plate shaker for 1 hour at ~500 rpm. Empty the contents of the wells and wash by adding 400 μL of wash solution to every well. Repeat the wash 4 more times for a total of 5 washes.
After the final wash, empty or aspirate the wells and firmly tap the plate on a lint free paper towel to remove any remaining wash buffer. Add 100 μL of blue Conjugate to each well, except the Blank.
Seal the plate and incubate at room temperature on a plate shaker for 30 minutes at ~500 rpm. Empty the contents of the wells and wash by adding 400 μL of wash solution to every well. Repeat the wash 4 more times for a total of 5 washes. After the final wash, empty or aspirate the wells and firmly tap […]
the plate on a lint free paper towel to remove any remaining wash buffer. Pipet 100 μL of Substrate Solution into each well. Incubate for 30 minutes at room temperature on a plate shaker at ~500 rpm.
Pipet 100 μL Stop Solution to each well. Blank the plate reader against the Blank wells, read the optical density at 450 nm. Calculate the average net Optical Density (OD) bound for each standard and sample by subtracting the average Blank OD from the average OD for each standard and sample.
Using linear graph paper, plot the Average Net OD for each standard versus Bax concentration in each standard. Approximate a straight line through the points. The concentration of Bax in the unknowns can be determined by interpolation. […]
Remove plate cover and empty the wells. […]
Incubate the microwell strips at room temperature (18° to 25°C) for about 15 minutes, if

[10] = test system: Bcl-2; assay: Bcl-2 inhibition assay in MCF-7 cells; format: cell-based, human
Description: Additionally, the treatment led to a notable reduction in anti-apoptotic Bcl-2 expression levels, with a fold decrease of roughly 6 for compound 3e and 8 for compound 5a. Compounds 3e and 5a markedly elevated the Bax/Bcl-2 ratio compared to the control untreated cells. […]
4.2.8. Bcl-2 inhibition assay
Mix all reagents thoroughly without foaming before use. Wash the microwells twice with approximately 300 μL Wash Buffer per well with thorough aspiration of microwell contents between washes. Take caution not to scratch the surface of the microwells. After the last wash, empty the wells and tap microwell strips on absorbent pad or paper towel to remove excess Wash Buffer. Use the microwell strips immediately after washing or place upside down on a wet absorbent paper for not […]
longer than 15 minutes. […] Add 100 μL of Sample Diluent in duplicate to all standard wells and to the blank wells. Prepare standard (1:2 dilution) in duplicate ranging from 32 ng/mL to 0.5 ng/mL. Add 100 μL of Sample Diluent, in duplicate, to the blank wells. Add 80 μL of Sample Diluent, in duplicate, to the sample wells. Add 20 μL of each Sample, in duplicate, to the designated wells. Add 50 μL of diluted biotin-conjugate to all wells, including the blank wells. Cover with a plate cover and incubate at room temperature, on a microplate shaker at 100 rpm if available, for 2 hours. Remove plate cover and empty the wells. Wash microwell strips 3 times as described in step 2. Add 100 μL of diluted Streptavidin-HRP to all wells, including the blank wells. Cover with a plate cover and incubate at room temperature, on a microplate shaker at 100 rpm if available, for 1 hour. Remove plate cover and empty the wells. Wash microwell strips 3 times as described in step 2.
Proceed to the next step. Pipette 100 μl of mixed TMB Substrate Solution to all wells, including the blanks. Incubate the microwell strips at room temperature (18° to 25°C) for about 15 minutes, if available on a rotator set at 100 rpm. Avoid direct exposure to intense light. The point, at which the substrate reaction is stopped, is often determined by the ELISA reader. Many ELISA readers record absorbance only up to 2.0 O.D. Therefore, the color development within individual microwells must be watched by the person running the assay and the substrate reaction stopped before positive wells are no longer properly detectable. Stop the enzyme reaction by quickly pipetting 100 μL of Stop Solution into each well, including the blank wells. It is important that the Stop Solution is spread quickly and uniformly throughout the microwells to completely inactivate the enzyme. Results must be read immediately after the Stop Solution is added or within one hour if the microwell strips are stored at 2 - 8°C in the dark. Read absorbance of each microwell on a spectrophotometer using 450 nm as the primary wavelength.
4.3. Statistical analysis
Computerized Prism 5 program was used to statistically analyzed data using one-way ANOVA test followed by Tukey’s as post ANOVA for multiple comparison at P ≤.05. Data were presented as […]

| IC50 [1] | melting point | IC50 [2] | GI50 ([4]; Homo sapiens) | IC50 [5] | IC50 [6] | GI50 [4] | SMILES | viability at 96 h, 50 µM [3] | Caspase-8 Conc. ([7]; treated at IC50 concentration) | Caspase-8 Fold change ([7]; versus untreated control) | Caspase-3 Conc. ([8]; treated at IC50 concentration) | Caspase-3 Fold change ([8]; versus untreated control) | Bax Conc. ([9]; treated at IC50 values) | Bax Fold change ([9]; versus untreated control) | Bcl-2 Conc. ([10]; treated at IC50 values) | Bcl-2 Fold reduction ([10]; versus untreated control) |
| --- | --- | --- | --- | --- | --- | --- | --- | --- | --- | --- | --- | --- | --- | --- | --- | --- |
| 74 ± 7 nM | 310 to 312 °C | 74 ± 7 nM | 72 nM | 72 ± 7 nM | 69 ± 6 nM |  | O=c1[nH]c2ccccc2c(O)c1/C=N/c1nc(-c2ccccc2)n[nH]1 [Compound 3a, (E) 4-hydroxy-3-(((3-phenyl-1H-1,2,4-triazol-5-yl)imino)methyl)quinolin-2(1H)-one] | 89% |  |  |  |  |  |  |  |  |
| 71 ± 6 nM | 325 to 327 °C | 70 ± 6 nM | 70 nM | 70 ± 6 nM | 67 ± 6 nM |  | Cc1ccc2[nH]c(=O)c(/C=N/c3nc(-c4ccccc4)n[nH]3)c(O)c2c1 [Compound 3b, (E) 4-hydroxy-6-methyl-3-(((3-phenyl-1H-1,2,4-triazol-5-yl)imino)methyl)quinolin-2(1H)-one] | 90% |  |  |  |  |  |  |  |  |
| 52 ± 4 nM | 330 to 332 °C | 54 ± 5 nM | 51 nM | 50 ± 5 nM | 46 ± 4 nM |  | COc1ccc2[nH]c(=O)c(/C=N/c3nc(-c4ccccc4)n[nH]3)c(O)c2c1 [Compound 3c, (E)-4-hydroxy-6-methoxy-3-(((3-phenyl-1H-1,2,4-triazol-5-yl)imino)methyl) quinolin-2(1H)-one] | 87% |  |  |  |  |  |  |  |  |
| 77 ± 7 nM | 295 to 297 °C | 76 ± 7 nM | 76 nM | 76 ± 7 nM | 74 ± 7 nM |  | Cn1c(=O)c(/C=N/c2nc(-c3ccccc3)n[nH]2)c(O)c2ccccc21 [Compound 3d, (E)-4-hydroxy-1-methyl-3-(((3-phenyl-1H-1,2,4-triazol-5-yl)imino)methyl)quinolin-2(1H)-one] | 89% |  |  |  |  |  |  |  |  |
| 64 ± 6 nM |  | 65 ± 6 nM | 63 nM | 62 ± 6 nM | 59 ± 5 nM |  | Cc1ccc2[nH]c(=O)c(/C=N/c3nc(-c4ccncc4)n[nH]3)c(O)c2c1 [Compound 3f, (E)-4-hydroxy-6-methyl-3-(((3-(pyridin-4-yl)-1H-1,2,4-triazol-5-yl)imino)methyl) quinolin-2(1H)-one] | 90% |  |  |  |  |  |  |  |  |

More lines, now with the values behind:

| SMILES | IC50 [1] | melting point | IC50 [2] | GI50 ([4]; Homo sapiens) | IC50 [5] | IC50 [6] | GI50 [4] | viability at 96 h, 50 µM [3] | Caspase-8 Conc. ([7]; treated at IC50 concentration) | Caspase-8 Fold change ([7]; versus untreated control) | Caspase-3 Conc. ([8]; treated at IC50 concentration) | Caspase-3 Fold change ([8]; versus untreated control) | Bax Conc. ([9]; treated at IC50 values) | Bax Fold change ([9]; versus untreated control) | Bcl-2 Conc. ([10]; treated at IC50 values) | Bcl-2 Fold reduction ([10]; versus untreated control) |
| --- | --- | --- | --- | --- | --- | --- | --- | --- | --- | --- | --- | --- | --- | --- | --- | --- |
| COc1ccc2[nH]c(=O)c(/C=N/c3nc(-c4ccncc4)n[nH]3)c(O)c2c1 [Compound 3g, (E)-4-hydroxy-6-methoxy-3-(((3-(pyridin-4-yl)-1H-1,2,4-triazol-5-yl)imino)methyl) quinol-in-2(1H)-one] | 66 ± 6 nM |  | 64 ± 6 nM | 82 nM | 64 ± 6 nM | 60 ± 6 nM | 64 nM | 89% |  |  |  |  |  |  |  |  |
| Cn1c(=O)c(/C=N/c2nc(-c3ccncc3)n[nH]2)c(O)c2ccccc21 [Compound 3h, (E)-4-hydroxy-1-methyl-3-(((3-(pyridin-4-yl)-1H-1,2,4-triazol-5-yl)imino)methyl) quinolin-2(1H)-one] | 82 ± 8 nM | 310 to 312 °C | 86 ± 8 nM | 82 nM | 82 ± 8 nM | 78 ± 7 nM |  | 85% |  |  |  |  |  |  |  |  |
| COc1ccc2[nH]c(=O)c(C=Nc3ccc(NS(=O)(=O)c4ncccn4)cc3)c(O)c2c1 [Compound 5c, N-(4-(((4-hydroxy-6-methoxy-2-oxo-1,2-dihydroquinolin-3-yl)methylene)amino)phenyl)pyrimidine-2-sulfonamide] | 55 ± 5 nM |  | 54 ± 5 nM | 53 nM | 53 ± 5 nM | 49 ± 4 nM |  | 86% |  |  |  |  |  |  |  |  |
| CN[C@@H]1C[C@H]2O[C@@](C)([C@@H]1OC)n1c3ccccc3c3c4c(c5c6ccccc6n2c5c31)C(=O)NC4 [Staurosporine, reference compound] |  |  |  |  |  |  |  |  | 1.60 ± 0.10 ng/mL | 18 | 465 ± 4 pg/mL | 7 | 288 ± 2 pg/mL | 32 | 1.00 ng/mL | 5 |
